Source: ChEMBL document CHEMBL6127079, “Design and synthesis of spiro[pyrrolidine-3,3'-quinoline]-2,2'-dione derivatives as novel antifungal agents targeting chitin synthase” (Eur J Med Chem, 2024)
Converted amounts (≈) assume the structure as drawn. The source made the active and inactive calls. The rule behind the calls is not given here.

Legend:
[1] = Non-competitive inhibition of chitin synthase extracted from Candida tropicalis ATCC 750 using UDP-GlcNAc as substrate assessed as inhibition constant by Lineweaver-Burk plot analysis
[2] = test system: Candida albicans; assay: Antifungal activity against Candida albicans ATCC 76615 assessed as Polyoxin B MIC incubated for 24 hrs in presence of fluconazole by half broth dilution based checkerboard method; type: functional
[3] = test system: A549; assay: Cytotoxicity against human A549 cells assessed as reduction in cell viability at 4 microg/ml incubated for 24 hrs by CCK-8 assay relative to control; type: toxicity, cell-based; details: a549, 24 h, at 4 µg/mL
[4] = test system: Candida tropicalis; assay: Inhibition of chitin synthase extracted from Candida tropicalis ATCC 750 using UDP-GlcNAc as substrate assessed as inhibition rate at 300 ug/ml by TMB based microplate analyzer relative to control; details: dose 300.0 µg/ml
[5] = test system: Aspergillus flavus; assay: Antifungal activity against Aspergillus flavus ATCC 16870 incubated for 24 hrs by half broth dilution based checkerboard method; type: functional
[6] = test system: Aspergillus fumigatus; assay: Antifungal activity against fluconazole-resistant Aspergillus fumigatus GIMCC 3.19 assessed as inhibition of fungal growth incubated for 24 to 72 hrs; type: functional; details: time 24-72 hrs
[7] = test system: A549; assay: Cytotoxicity against human A549 cells assessed as reduction in cell viability at 32 microg/ml incubated for 24 hrs by CCK-8 assay relative to control; type: toxicity, cell-based; details: a549, 24 h, at 32 µg/mL
[8] = test system: Aspergillus flavus; assay: Antifungal activity against Aspergillus flavus ATCC 16870 assessed as inhibition of growth incubated for 24 hrs by two-fold serial dilution method; type: functional
[9] = test system: Aspergillus fumigatus; assay: Antifungal activity against Aspergillus fumigatus GIMCC 3.19 assessed as inhibition of growth incubated for 24 hrs by two-fold serial dilution method; type: functional
[10] = test system: A549; assay: Cytotoxicity against human A549 cells assessed as reduction in cell viability at 16 microg/ml incubated for 24 hrs by CCK-8 assay relative to control; type: toxicity, cell-based; details: a549, 24 h, at 16 µg/mL
[11] = test system: Aspergillus fumigatus; assay: Antifungal activity against Aspergillus fumigatus GIMCC 3.19 assessed as Polyoxin B MIC incubated for 24 hrs in presence of fluconazole by half broth dilution based checkerboard method; type: functional
[12] = test system: Aspergillus flavus; assay: Antifungal activity against fluconazole-resistant Aspergillus flavus ATCC 16870 assessed as inhibition of fungal growth incubated for 24 to 72 hrs; type: functional; details: time 24-72 hrs
[13] = test system: Candida albicans; assay: Antifungal activity against drug-resistant Candida albicans ATCC 76615 assessed as inhibition of cell wall synthesis in presence of sorbitol incubated for 24 hrs; type: functional
[14] = test system: Cryptococcus neoformans; assay: Synergistic antifungal activity against Cryptococcus neoformans ATCC 32719 assessed as fractional inhibitory concentration index in presence of Polyoxin B incubated for 24 hrs by half broth dilution based checkerboard method; type: functional
[15] = test system: Cryptococcus neoformans; assay: Antifungal activity against Cryptococcus neoformans ATCC 32719 incubated for 24 hrs by half broth dilution based checkerboard method; type: functional
[16] = test system: Candida albicans; assay: Antifungal activity against fluconazole-resistant Candida albicans ATCC 76615 assessed as inhibition of fungal growth incubated for 24 to 72 hrs; type: functional; details: time 24-72 hrs
[17] = test system: Candida albicans; assay: Antifungal activity against Candida albicans ATCC 76615 assessed as inhibition of growth incubated for 24 hrs by two-fold serial dilution method; type: functional
[18] = test system: Aspergillus flavus; assay: Antifungal activity against Aspergillus flavus ATCC 16870 assessed as Polyoxin B MIC incubated for 24 hrs in presence of fluconazole by half broth dilution based checkerboard method; type: functional
[19] = test system: Cryptococcus neoformans; assay: Antifungal activity against Cryptococcus neoformans ATCC 32719 assessed as Polyoxin B MIC incubated for 24 hrs in presence of fluconazole by half broth dilution based checkerboard method; type: functional
[20] = test system: Cryptococcus neoformans; assay: Antifungal activity against drug-resistant Cryptococcus neoformans ATCC 32719 assessed as inhibition of cell wall synthesis in presence of sorbitol incubated for 24 hrs; type: functional
[21] = test system: Aspergillus flavus; assay: Synergistic antifungal activity against Aspergillus flavus ATCC 16870 assessed as fractional inhibitory concentration index in presence of fluconazole incubated for 24 hrs by half broth dilution based checkerboard method; type: functional
[22] = test system: Aspergillus fumigatus; assay: Antifungal activity against drug-resistant Aspergillus fumigatus GIMCC 3.19 assessed as inhibition of cell wall synthesis in presence of sorbitol incubated for 24 hrs; type: functional
[23] = test system: A549; assay: Cytotoxicity against human A549 cells assessed as reduction in cell viability at 64 microg/ml incubated for 24 hrs by CCK-8 assay relative to control; type: toxicity, cell-based; details: a549, 24 h, at 64 µg/mL
[24] = test system: A549; assay: Cytotoxicity against human A549 cells assessed as reduction in cell viability at 8 microg/ml incubated for 24 hrs by CCK-8 assay relative to control; type: toxicity, cell-based; details: a549, 24 h, at 8 µg/mL
[25] = test system: Cryptococcus neoformans; assay: Antifungal activity against fluconazole-resistant Cryptococcus neoformans ATCC 32719 assessed as inhibition of fungal growth incubated for 24 to 72 hrs; type: functional; details: time 24-72 hrs
[26] = test system: Aspergillus flavus; assay: Antifungal activity against drug-resistant Aspergillus flavus ATCC 16870 assessed as inhibition of cell wall synthesis in presence of sorbitol incubated for 24 hrs; type: functional
[27] = test system: Cryptococcus neoformans; assay: Antifungal activity against Cryptococcus neoformans ATCC 32719 assessed as inhibition of growth incubated for 24 hrs by two-fold serial dilution method; type: functional
[28] = Inhibition of chitin synthase extracted from Candida tropicalis ATCC 750 using UDP-GlcNAc as substrate assessed as inhibition rate by TMB based microplate analyzer relative to control
[29] = test system: Candida albicans; assay: Synergistic antifungal activity against Candida albicans ATCC 76615 assessed as fractional inhibitory concentration index in presence of fluconazole incubated for 24 hrs by half broth dilution based checkerboard method; type: functional
[30] = test system: Candida albicans; assay: Antifungal activity against Candida albicans ATCC 76615 assessed as fluconazole MIC incubated for 24 hrs in presence of fluconazole by half broth dilution based checkerboard method; type: functional
[31] = test system: Cryptococcus neoformans; assay: Synergistic antifungal activity against Cryptococcus neoformans ATCC 32719 assessed as fractional inhibitory concentration index in presence of fluconazole incubated for 24 hrs by half broth dilution based checkerboard method; type: functional
[32] = test system: Candida albicans; assay: Antifungal activity against Candida albicans ATCC 76615 incubated for 24 hrs by half broth dilution based checkerboard method; type: functional
[33] = test system: Aspergillus flavus; assay: Antifungal activity against Aspergillus flavus ATCC 16870 assessed as fluconazole MIC incubated for 24 hrs in presence of fluconazole by half broth dilution based checkerboard method; type: functional
[34] = test system: Aspergillus fumigatus; assay: Synergistic antifungal activity against Aspergillus fumigatus GIMCC 3.19 assessed as fractional inhibitory concentration index in presence of Polyoxin B incubated for 24 hrs by half broth dilution based checkerboard method; type: functional
[35] = test system: Candida albicans; assay: Synergistic antifungal activity against Candida albicans ATCC 76615 assessed as fractional inhibitory concentration index in presence of Polyoxin B incubated for 24 hrs by half broth dilution based checkerboard method; type: functional
[36] = test system: Aspergillus fumigatus; assay: Antifungal activity against Aspergillus fumigatus GIMCC 3.19 assessed as fluconazole MIC incubated for 24 hrs in presence of fluconazole by half broth dilution based checkerboard method; type: functional
[37] = test system: Candida tropicalis; assay: Non-competitive inhibition of chitin synthase extracted from Candida tropicalis ATCC 750 using UDP-GlcNAc as substrate assessed as decrease in Vm with constant Km at 0 to 0.15 mM by Lineweaver-Burk plot analysis; details: dose 0-0.15 mM
[38] = test system: Aspergillus fumigatus; assay: Antifungal activity against Aspergillus fumigatus GIMCC 3.19 incubated for 24 hrs by half broth dilution based checkerboard method; type: functional
[39] = test system: Cryptococcus neoformans; assay: Antifungal activity against Cryptococcus neoformans ATCC 32719 assessed as fluconazole MIC incubated for 24 hrs in presence of fluconazole by half broth dilution based checkerboard method; type: functional
[40] = test system: Aspergillus flavus; assay: Synergistic antifungal activity against Aspergillus flavus ATCC 16870 assessed as fractional inhibitory concentration index in presence of Polyoxin B incubated for 24 hrs by half broth dilution based checkerboard method; type: functional
[41] = test system: Aspergillus fumigatus; assay: Synergistic antifungal activity against Aspergillus fumigatus GIMCC 3.19 assessed as fractional inhibitory concentration index in presence of fluconazole incubated for 24 hrs by half broth dilution based checkerboard method; type: functional
[42] = test system: Candida albicans; assay: Antifungal activity against micafungin-resistant Candida albicans ATCC 76615 assessed as inhibition of fungal growth incubated for 24 to 72 hrs; type: functional; details: time 24-72 hrs
[43] = test system: A549; assay: Cytotoxicity against human A549 cells assessed as reduction in cell viability at 128 microg/ml incubated for 24 hrs by CCK-8 assay relative to control; type: toxicity, cell-based; details: a549, 24 h, at 128 µg/mL

Cc1cc([N+](=O)[O-])ccc1NC(=O)C1CCN(CC(=O)Nc2ccc3c(c2)NC(=O)C2(CCNC2=O)C3)CC1 (racemic)
Ki [1]: 108 µM | MIC [2]: 8 µg/mL | Activity [3]: 97.1% | inhibition [4]: 85.2% | MIC [5]: 16 µg/mL | MIC [6]: 32 µg/mL (≈ 59.9 µM) | Activity [7]: 91.9% | MIC [8]: 16 µg/mL (≈ 29.9 µM) | MIC [9]: 16 µg/mL (≈ 29.9 µM) | Activity [10]: 92.2% | MIC [11]: 16 µg/mL | MIC [12]: 32 µg/mL (≈ 59.9 µM) | MIC [13]: 256 µg/mL | fractional inhibitory concentration index (FICI) [14]: 1.5 | MIC [15]: 8 µg/mL | MIC [16]: 64 µg/mL (≈ 120 µM) | MIC [17]: 8 µg/mL (≈ 15 µM) | MIC [18]: 16 µg/mL | MIC [19]: 8 µg/mL | MIC [20]: 512 µg/mL | fractional inhibitory concentration index (FICI) [21]: 1.5 | MIC [22]: 128 µg/mL | Activity [23]: 87.6% | Activity [24]: 93.8% | MIC [25]: 64 µg/mL (≈ 120 µM) | MIC [26]: 256 µg/mL | MIC [27]: 8 µg/mL (≈ 15 µM) | IC50 [28]: 93 µM | fractional inhibitory concentration index (FICI) [29]: 1 | MIC [30]: 1.25 µg/mL | fractional inhibitory concentration index (FICI) [31]: 0.75 | MIC [32]: 8 µg/mL | MIC [33]: 0.625 µg/mL | fractional inhibitory concentration index (FICI) [34]: 2 | fractional inhibitory concentration index (FICI) [35]: 0.625 | MIC [36]: 0.75 µg/mL | inhibition [37]: Active | MIC [38]: 16 µg/mL | MIC [39]: 1.5 µg/mL | fractional inhibitory concentration index (FICI) [40]: 0.75 | fractional inhibitory concentration index (FICI) [41]: 2 | MIC [42]: 64 µg/mL (≈ 120 µM) | Activity [43]: 73.5%

O=C(/C=C/C(=O)Nc1nc2ccccc2s1)Nc1ccc2c(c1)NC(=O)C1(CCNC1=O)C2 (racemic)
Ki [1]: 114 µM | MIC [2]: 2 µg/mL | Activity [3]: 93.5% | inhibition [4]: 82.5% | MIC [5]: 4 µg/mL | MIC [6]: 32 µg/mL (≈ 69.3 µM) | Activity [7]: 87.9% | MIC [8]: 16 µg/mL (≈ 34.7 µM) | MIC [9]: 4 µg/mL (≈ 8.67 µM) | Activity [10]: 91.1% | MIC [11]: 2 µg/mL | MIC [12]: 32 µg/mL (≈ 69.3 µM) | MIC [13]: 128 µg/mL | fractional inhibitory concentration index (FICI) [14]: 1 | MIC [15]: 2 µg/mL | MIC [16]: 64 µg/mL (≈ 139 µM) | MIC [17]: 8 µg/mL (≈ 17.3 µM) | MIC [18]: 8 µg/mL | MIC [19]: 4 µg/mL | MIC [20]: 64 µg/mL | fractional inhibitory concentration index (FICI) [21]: 0.75 | MIC [22]: 64 µg/mL | Activity [23]: 79.1% | Activity [24]: 90.5% | MIC [25]: 64 µg/mL (≈ 139 µM) | MIC [26]: 128 µg/mL | MIC [27]: 4 µg/mL (≈ 8.67 µM) | IC50 [28]: 104 µM | fractional inhibitory concentration index (FICI) [29]: 0.5 | MIC [30]: 2 µg/mL | fractional inhibitory concentration index (FICI) [31]: 1 | MIC [32]: 2 µg/mL | MIC [33]: 2 µg/mL | fractional inhibitory concentration index (FICI) [34]: 1.5 | fractional inhibitory concentration index (FICI) [35]: 0.5 | MIC [36]: 4 µg/mL | inhibition [37]: Active | MIC [38]: 2 µg/mL | MIC [39]: 4 µg/mL | fractional inhibitory concentration index (FICI) [40]: 0.75 | fractional inhibitory concentration index (FICI) [41]: 1.5 | MIC [42]: 64 µg/mL (≈ 139 µM) | Activity [43]: 68.4%

NC(=O)OC[C@H](O)[C@@H](O)[C@H](N)C(=O)N[C@H](C(=O)O)[C@H]1O[C@@H](n2cc(CO)c(=O)[nH]c2=O)[C@H](O)[C@@H]1O [POLYOXIN B]
Activity [3]: 99.2% | inhibition [4]: 86.4% | MIC [5]: 16 µg/mL | Activity [7]: 92.7% | MIC [8]: 16 µg/mL (≈ 31.5 µM) | MIC [9]: 8 µg/mL (≈ 15.8 µM) | Activity [10]: 97.9% | MIC [15]: 16 µg/mL | MIC [17]: 16 µg/mL (≈ 31.5 µM) | MIC [20]: 256 µg/mL | MIC [22]: 128 µg/mL | Activity [23]: 91.2% | Activity [24]: 98.8% | MIC [26]: 512 µg/mL | MIC [27]: 16 µg/mL (≈ 31.5 µM) | IC50 [28]: 82 µM | MIC [32]: 16 µg/mL | MIC [38]: 8 µg/mL | Activity [43]: 84.3%
